Article PMC11094793, “Discovery of LLC0424 as a Potent and Selective in Vivo NSD2 PROTAC Degrader” (Journal of Medicinal Chemistry, 2024)
Read-outs that look alike come from different tables or passages of the source.

Tests used:
NSD2 [1] = molecular target: T1, NSD2 (Homo sapiens, UniProt O96028); assay: Compound screening: NSD2 degradation by immunoblotting in VCaP cells; settings: 24 h; for Dmax at 2 µM: VCaP; for % Degradation: 2 μM, VCaP cells, immunoblotting
T1 sequence (O96028 1-1365): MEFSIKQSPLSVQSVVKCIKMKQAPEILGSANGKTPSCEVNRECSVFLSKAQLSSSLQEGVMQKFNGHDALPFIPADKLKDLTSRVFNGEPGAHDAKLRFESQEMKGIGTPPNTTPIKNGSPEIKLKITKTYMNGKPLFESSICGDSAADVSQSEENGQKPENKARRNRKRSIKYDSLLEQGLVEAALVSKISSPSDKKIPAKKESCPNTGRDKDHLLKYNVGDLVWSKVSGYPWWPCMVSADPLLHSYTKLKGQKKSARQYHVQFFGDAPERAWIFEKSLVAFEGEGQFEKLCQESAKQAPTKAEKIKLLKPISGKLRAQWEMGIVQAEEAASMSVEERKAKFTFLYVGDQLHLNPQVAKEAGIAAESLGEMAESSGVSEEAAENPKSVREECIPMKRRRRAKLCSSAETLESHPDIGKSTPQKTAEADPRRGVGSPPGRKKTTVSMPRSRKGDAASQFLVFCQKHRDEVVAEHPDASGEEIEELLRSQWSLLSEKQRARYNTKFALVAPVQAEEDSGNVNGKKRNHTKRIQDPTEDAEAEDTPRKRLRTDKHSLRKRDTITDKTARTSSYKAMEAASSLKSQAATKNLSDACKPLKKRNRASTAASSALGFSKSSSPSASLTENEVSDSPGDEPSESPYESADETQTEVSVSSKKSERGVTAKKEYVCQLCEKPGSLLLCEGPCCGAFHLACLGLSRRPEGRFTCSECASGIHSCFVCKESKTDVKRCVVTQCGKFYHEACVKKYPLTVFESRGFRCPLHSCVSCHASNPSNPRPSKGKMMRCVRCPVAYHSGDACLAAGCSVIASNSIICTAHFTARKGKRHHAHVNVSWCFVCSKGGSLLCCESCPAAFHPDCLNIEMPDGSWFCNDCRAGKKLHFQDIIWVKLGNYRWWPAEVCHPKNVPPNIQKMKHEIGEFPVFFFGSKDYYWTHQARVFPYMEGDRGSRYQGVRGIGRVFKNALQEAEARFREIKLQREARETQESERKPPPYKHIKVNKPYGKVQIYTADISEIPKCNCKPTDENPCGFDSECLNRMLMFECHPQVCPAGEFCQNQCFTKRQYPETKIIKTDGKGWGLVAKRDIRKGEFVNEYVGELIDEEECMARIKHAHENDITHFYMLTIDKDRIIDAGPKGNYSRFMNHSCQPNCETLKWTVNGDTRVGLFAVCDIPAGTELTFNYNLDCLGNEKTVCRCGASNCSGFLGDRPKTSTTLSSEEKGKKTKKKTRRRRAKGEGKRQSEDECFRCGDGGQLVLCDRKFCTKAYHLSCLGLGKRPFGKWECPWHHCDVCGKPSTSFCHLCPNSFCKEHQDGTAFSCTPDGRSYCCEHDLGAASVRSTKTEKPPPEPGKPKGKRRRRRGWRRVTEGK
Procedure: After treatment, the cultured cells were collected and rinsed with phosphate-buffered saline (PBS) in room temperature. The cells were treated with RIPA buffers (ThermoFisher Scientific) supplemented with Halt Protease and Phosphatase Inhibitor Cocktail (ThermoFisher Scientific). After sonication and centrifugation, the total amount of protein in the cell lysates was measured by Pierce Bovine Serum Albumin Standard Pre-Diluted Set (ThermoFisher Scientific). […] After incubated with HRP-conjugated secondary antibodies, the membranes were developed with ECL Prime Western Blotting Detection Reagent (cytiva) and imaged on Odyssey Fc Imager (LiCOR Biosciences).
Western blot was then performed as previously described to detect NSD2 degradation.

NSD2 [2] = molecular target: T2, NSD2 (Homo sapiens, UniProt O96028); assay: Validation of mechanism of action: pretreatment rescue of LLC0424-mediated NSD2 degradation; format: cell-based; settings: for effect of pretreatment on NSD2 protein reduction induced by LLC0424: RPMI-8402 cells, 2 μM LLC0424; for effect of pretreatment on LLC0424-mediated NSD2 degradation: RPMI-8402 and SEM cells, pretreated 2 h, then 2 μM LLC0424 for 12 h
T2 sequence (O96028 211-350 limits assumed): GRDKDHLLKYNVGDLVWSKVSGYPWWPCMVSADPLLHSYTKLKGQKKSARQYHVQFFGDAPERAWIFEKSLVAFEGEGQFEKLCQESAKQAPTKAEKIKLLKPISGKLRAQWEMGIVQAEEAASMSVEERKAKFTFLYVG

[3] = molecular target: T3, NSD2 (both long and short isoforms) (Homo sapiens, UniProt O96028); assay: NSD2 degradation by immunoblotting in ALL cell lines RPMI-8402 and SEM (NSD2 E1099K); format: cell-based; settings: RPMI-8402 and SEM cells; 0.5 and 2 μM for 24 h or 2 μM for 12 and 24 h
T3 sequence (O96028 211-350 limits assumed): T2 sequence (O96028 211-350 limits assumed)
Procedure: As previous studies have shown that ALL cell lines with NSD2 gain-of-function mutation are more dependent on NSD2 regarding H3K36me2 level and cell proliferation,[7],[8] we further characterized LLC0424 in ALL cell lines with NSD2 E1099K gain-of-function mutation (RPMI-8402 and SEM). We first treated these cells with LLC0424 with different concentrations for 24 h. […] In addition, we compared the degradation efficiency of LLC0424 with the two previously published NSD2 degraders 6 and 7 at different concentrations and time points.
After treatment, the cultured cells were collected and rinsed with phosphate-buffered saline (PBS) in room temperature. The cells were treated with RIPA buffers (ThermoFisher Scientific) supplemented with Halt Protease and Phosphatase Inhibitor Cocktail (ThermoFisher Scientific). After sonication and centrifugation, the total amount of protein in the cell lysates was measured by Pierce Bovine Serum Albumin Standard Pre-Diluted Set (ThermoFisher Scientific). After mixed with LDS-sample buffer (Invitrogen) supplemented with Sample Reducing Agent (Invitrogen) and heated in 70 °C for 10 min, equal amount of protein was loaded into NuPAGE 4–12%, Bis-Tris Protein Gel (ThermoFisher Scientific) or NuPAGE 3–8%, Tris-Acetate Protein Gel (ThermoFisher Scientific), and blotted with primary antibodies. After incubated with HRP-conjugated secondary antibodies, the membranes were developed with ECL Prime Western Blotting Detection Reagent (cytiva) and imaged on Odyssey Fc Imager (LiCOR Biosciences).

[4] = read-out: 2.0 μM Degradation % (VCaP)

Structure (SMILES)	Dmax at 2 µM (NSD2 [1]; [4])	Dmax at 2 µM (NSD2 [1]; read-out: % Degradation)	also measured
O=C1CCC(N2C(=O)c3ccc(N4CCC(CNC(=O)c5ccc(NC(=O)c6ccc(CN(C(=O)c7ccc8c(c7)OCC(=O)N8)C7CC7)cc6)cc5)CC4)cc3C2=O)C(=O)N1 (centres unmarked) [10n, N-Cyclopropyl-N-(4-((4-(((1-(2-(2,6-dioxopiperidin-3-yl)-1,3-dioxoisoindolin-5-yl)piperidin-4-yl)methyl)carbamoyl)phenyl)carbamoyl)benzyl)-3-oxo-3,4-dihydro-2H-benzo[b][1,4]oxazine-7-carboxamide]	74%	74%	–
CN(C(=O)c1ccc(NC(=O)c2ccc(CN(C(=O)c3ccc4c(c3)OCC(=O)N4)C3CC3)cc2)cc1)C1CCN(c2ccc3c(c2)C(=O)N(C2CCC(=O)NC2=O)C3=O)CC1 (centres unmarked) [10o, N-Cyclopropyl-N-(4-((4-((1-(2-(2,6-dioxopiperidin-3-yl)-1,3-dioxoisoindolin-5-yl)piperidin-4-yl)(methyl)carbamoyl)phenyl)carbamoyl)benzyl)-3-oxo-3,4-dihydro-2H-benzo[b][1,4]oxazine-7-carboxamide]	89%	89%	–
CC1(NC(=O)c2ccc(NC(=O)c3ccc(CN(C(=O)c4ccc5c(c4)OCC(=O)N5)C4CC4)cc3)cc2)CCN(c2ccc3c(c2)C(=O)N(C2CCC(=O)NC2=O)C3=O)CC1 (centres unmarked) [10p, N-Cyclopropyl-N-(4-((4-((1-(2-(2,6-dioxopiperidin-3-yl)-1,3-dioxoisoindolin-5-yl)-4-methylpiperidin-4-yl)carbamoyl)phenyl)carbamoyl)benzyl)-3-oxo-3,4-dihydro-2H-benzo[b][1,4]oxazine-7-carboxamide]	30%	30%	–
O=C1CCC(N2C(=O)c3ccc(N4CCCC(NC(=O)c5ccc(NC(=O)c6ccc(CN(C(=O)c7ccc8c(c7)OCC(=O)N8)C7CC7)cc6)cc5)C4)cc3C2=O)C(=O)N1 (centres unmarked) [10q, N-Cyclopropyl-N-(4-((4-((1-(2-(2,6-dioxopiperidin-3-yl)-1,3-dioxoisoindolin-5-yl)piperidin-3-yl)carbamoyl)phenyl)carbamoyl)benzyl)-3-oxo-3,4-dihydro-2H-benzo[b][1,4]oxazine-7-carboxamide]	3%	3%	–
NS(=O)(=O)OC[C@@H]1C[C@@H](n2ccc3c(N[C@H]4CCc5ccccc54)ncnc32)C[C@@H]1O [MLN4924]	–	–	effect of pretreatment on NSD2 protein reduction induced by LLC0424 (NSD2 [2]): rescued the NSD2 protein reduction induced by LLC0424
Cc1ncsc1-c1ccc(CNC(=O)[C@@H]2C[C@@H](O)CN2C(=O)[C@H](C(C)C)N2Cc3ccccc3C2=O)cc1 [VL-285]	–	–	effect of pretreatment on LLC0424-mediated NSD2 degradation (NSD2 [2]): not
CC(C)C[C@H](NC(=O)[C@H](Cc1ccccc1)NC(=O)c1cnccn1)B(O)O [bortezomib]	–	–	effect of pretreatment on NSD2 protein reduction induced by LLC0424 (NSD2 [2]): rescued the NSD2 protein reduction induced by LLC0424
O=C(CNc1cccc2c1C(=O)N(C1CCC(=O)NC1=O)C2=O)NCCCOc1ccc(NC(=O)c2ccc(CN(C(=O)c3ccc4c(c3)OCC(=O)N4)C3CC3)cc2)nc1 (centres unmarked) [compound 6, reference compound]	–	–	NSD2 degradation, comparison of degraders [3]: much less active; % Degradation (NSD2 [1]): 11%
O=C1CCC(N2C(=O)c3cccc(NCCNC(=O)c4ccc(NC(=O)c5ccc(CN(C(=O)c6ccc7c(c6)OCC(=O)N7)C6CC6)cc5)cc4)c3C2=O)C(=O)N1 (centres unmarked) [compound 10a, N-Cyclopropyl-N-(4-((4-((2-((2-(2,6-dioxopiperidin-3-yl)-1,3-dioxoisoindolin-4-yl)amino)ethyl)carbamoyl)phenyl)carbamoyl)benzyl)-3-oxo-3,4-dihydro-2H-benzo[b][1,4]oxazine-7-carboxamide]	17%	17%	–
O=C1CCC(N2C(=O)c3cccc(NCCCCNC(=O)c4ccc(NC(=O)c5ccc(CN(C(=O)c6ccc7c(c6)OCC(=O)N7)C6CC6)cc5)cc4)c3C2=O)C(=O)N1 (centres unmarked) [compound 10b, N-Cyclopropyl-N-(4-((4-((4-((2-(2,6-dioxopiperidin-3-yl)-1,3-dioxoisoindolin-4-yl)amino)butyl)carbamoyl)phenyl)carbamoyl)benzyl)-3-oxo-3,4-dihydro-2H-benzo[b][1,4]oxazine-7-carboxamide]	25%	25%	–
O=C1CCC(N2C(=O)c3ccc(NCCCNC(=O)c4ccc(NC(=O)c5ccc(CN(C(=O)c6ccc7c(c6)OCC(=O)N7)C6CC6)cc5)cc4)cc3C2=O)C(=O)N1 (centres unmarked) [compound 10f, N-Cyclopropyl-N-(4-((4-((3-((2-(2,6-dioxopiperidin-3-yl)-1,3-dioxoisoindolin-5-yl)amino)propyl)carbamoyl)phenyl)carbamoyl)benzyl)-3-oxo-3,4-dihydro-2H-benzo[b][1,4]oxazine-7-carboxamide]	94%	94%	–
O=C1CCC(N2C(=O)c3ccc(NC4CCN(C(=O)c5ccc(NC(=O)c6ccc(CN(C(=O)c7ccc8c(c7)OCC(=O)N8)C7CC7)cc6)cc5)CC4)cc3C2=O)C(=O)N1 (centres unmarked) [compound 10k, N-Cyclopropyl-N-(4-((4-(4-((2-(2,6-dioxopiperidin-3-yl)-1,3-dioxoisoindolin-5-yl)amino)piperidine-1-carbonyl)phenyl)carbamoyl)benzyl)-3-oxo-3,4-dihydro-2H-benzo[b][1,4]oxazine-7-carboxamide]	48%	48%	% Degradation (NSD2 [1]): significant potency loss
O=C1CCC(N2C(=O)c3ccccc3C2=O)C(=O)N1 (centres unmarked) [thalidomide]	–	–	effect of pretreatment on LLC0424-mediated NSD2 degradation (NSD2 [2]): reversed the LLC0424-mediated NSD2 degradation
